Columns and labels:
THP1 cells = assay: THP1 host cell cytotoxicity; assay type: cell-based
[1] = Mouse pharmacokinetic study; assay type: in vivo; details: after oral dosing 50 mg kg^−1

Row | compound in the plasma after 24 hours [1] | SMILES | background cell cytotoxicity (in words) (THP1 cells)
1 | – | Cc1ccc2nc(-c3ccc(N(C)C)cc3)c(NC3CCCCC3)n2c1 [Compound 8] | no background cell cytotoxicity
2 | no compound observed | COc1ccn2c(Nc3cc(F)cc(F)c3)c(-c3ccccn3)nc2c1 [Compound 23] | –
3 | – | CC(C)(C)Nc1c(-c2ccccn2)nc2c(OCc3ccccc3)cccn12 [Compound 2] | no background cell cytotoxicity

Source: article PMC8130605 (RSC Medicinal Chemistry, 2021)
